Reference: patent US20040038369A1, “Airway-specific trypsin-like enzymes and method of using the same” (priority 2000, published 2004)

Key:
EGFR = test: Tyrosine phosphorylation of EGFR in NCI-H292 cells; type: cell-based, human; conditions: HAST 0.3 U/mL, 30 to 240 minutes
Experimental: NCI-H292 cells (purchased from ATCC) were suspended in 10% FCS-containing RPMI-1640 (produced by Gibco Corp.) and then sowed on a 12 well plate (made by Falcon Corp.) in a density of 6.0×10^4 cells/cm^2. The cells were cultured for 72 hours, subjected to the replacement of the culture medium by 0.1% BSA-containing RPMI-1640, and further cultured for 24 hours.
On the day of the treatment, the culture solution of the wells was replaced by RPMI-1640 (containing 0.1% BSA) containing HAST (0.3 U/mL), EGF (1 μg/mL), and the treatments were carried out for 30, 60, 120, 180, 240 minutes, respectively.
The cells treated with the HAST or the EGF for the prescribed time were twice washed with ice-cooled PBS, mixed with 500 μL of an ice-cooled Lysis buffer solution (50 mM Tris-HCl, pH 7.4, 5 mM EDTA, 1% Triton X-100 (Sigma), 150 mM NaCl, 10% glycerol, 1% Protease inhibitor Cocktail (Sigma), 1% Phosphatase Inhibitor Cocktail (Sigma)), allowed to stand on ice for 15 minutes, and then recovered in a micro tube. The recovered product in the micro tube was centrifuged at 15,000 rpm at 4° C. for 10 minutes, and the supernatant was recovered as a sample. The protein concentration of the sample was assayed with BioRad Protein Assay (produced by Bio Rad Corp.), and properly diluted with the Lysis buffer solution so that the protein concentrations in all the samples become 1.48 mg/mL. […]

PAR-4 = target: T1, PAR-4 (Homo sapiens, UniProt Q96RI0); test: Calcium influx in PAR-4-expressing insect cells; type: cell-based; conditions: AST 2 units/ml; trypsin, thrombin 0.1 to 10 units/mL
T1 construct: expressed in transfected cells; host or cells: Sf9 insect cells infected with recombinant baculovirus VL-PAR (pVL1393)
T1 sequence (Q96RI0 18-385): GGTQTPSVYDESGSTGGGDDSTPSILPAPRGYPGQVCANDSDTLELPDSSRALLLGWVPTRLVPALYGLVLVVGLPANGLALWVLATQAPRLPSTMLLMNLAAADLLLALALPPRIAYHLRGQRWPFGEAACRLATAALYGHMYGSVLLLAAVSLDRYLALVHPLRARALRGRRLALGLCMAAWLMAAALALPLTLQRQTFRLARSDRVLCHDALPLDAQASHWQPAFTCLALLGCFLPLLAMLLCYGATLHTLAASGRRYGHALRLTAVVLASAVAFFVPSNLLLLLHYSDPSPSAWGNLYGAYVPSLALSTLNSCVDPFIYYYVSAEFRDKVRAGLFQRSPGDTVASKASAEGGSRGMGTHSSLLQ
Experimental: The above-obtained recombinant baculovirus VL-PAR for expressing the PAR was used to infect 1.0×10^7 Sf9 cells sowed on a 75 cm^2 flask at an MOI=2, and was then left and stationally cultured at 27° C. for 40 hours. After the culture, the infected cells were recovered and then subjected to a calcium influx experiment to-confirm the function of the PAR.
The recovered infected cells (about 5×10^6 cells) were once washed with HEPES-Tyrode buffer solution-Ca^2+ (−) pH 7.4, and then suspended in 5 mL of HEPES-Tyrode buffer solution (containing Fura2-AM, 1 μg/mL) to load the Fura2-AM on the cells at 27° C. for 30 minutes. The suspension was centrifuged at 800 rpm at room temperature for 5 minutes to recover the cells. The cells were twice washed with HEPES-Tyrode buffer solution-Ca^2+ (−) pH 7.4 and then resuspended in 5 mL of HEPES-Tyrode buffer solution-Ca^2+ (−) pH 7.4. The cell suspension was mixed with 5 μL of 1M CaCl2 to give a final concentration of 1 mM CaCl2, and then incubated in a shaded state at room temperature for 5 minutes. The prepared Fura2-AM-loaded infected cells were dispensed into a 96 well plate in a volume of 100 μL/well, further subjected to the dispensation of HEPES-Tyrode buffer solution-C^2+ (+) pH 7.4 in a volume of 80 μL/well, and then assayed with a Fluorescence Drug Screening System (made by Hamamatsu Photonics Co.). […]

HAST: human airway-specific trypsin-like enzyme; propeptide moiety bound to trypsin-like protein moiety via a disulfide bond
tyrosine phosphorylation of EGFR (EGFR): activated EGFR
Ca2+ influx (PAR-4): observed
